The results in this text go back to patent US7772263B2, “Compounds for the treatment of inflammatory disorders” (Schering Corporation, priority 2006, dated 2010).

For orientation: Ki means a dissociation constant, usually derived from enzyme kinetics or from competition with a known ligand.

The target in one assay is T1, purified catalytic domain of recombinant human TACE (rhTACEc) (Homo sapiens, UniProt P78536, N452Q/S266A).
T1 construct: rhTACEc, Residue 215 to 477 with two mutation (S266A and N4520) and a 6×His tail; 6xHis (C); made in house; host or cells: baculovirus/Hi5 insect cells
T1 sequence (P78536 215-477 S266A/N452Q limits assumed): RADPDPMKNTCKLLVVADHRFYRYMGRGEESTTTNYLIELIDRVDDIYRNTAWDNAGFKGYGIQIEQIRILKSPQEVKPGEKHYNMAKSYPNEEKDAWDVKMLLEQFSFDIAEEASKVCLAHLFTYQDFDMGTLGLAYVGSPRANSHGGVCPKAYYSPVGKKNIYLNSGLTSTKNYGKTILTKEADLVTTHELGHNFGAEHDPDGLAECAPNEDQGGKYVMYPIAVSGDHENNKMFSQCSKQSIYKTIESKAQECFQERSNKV
The experiment in a line: TACE kinetic assay, cleavage of internally quenched fluorescent peptide substrate SPDL-3. Type of assay: biochemical. The settings on record: Ki (nM), TACE inhibitory activity, rhTACEc 70 pM, 30 μM SPDL-3, 90 min pre-incubation at 25° C.
Consider `COc1ccc2c(c1)C(=O)N(C[C@@]1(C#Cc3ccc4[nH]ccc4c3)NC(=O)NC1=O)C2` [Compound 1129], for which the Ki was found to be 0.17 nM.

Still in this assay, the particulars now being: TACE; class letters A-D; read-out: Ki Rating.
In the case of `CON=Cc1ccc(C#C[C@]2(CN3Cc4ccc(OC)cc4C3=O)NC(=O)NC2=O)s1` [Compound 1084], the Ki was < 5 nM. As to `CO/N=C/c1cccc(C#C[C@]2(CN3Cc4ccc(OC)cc4C3=O)NC(=O)NC2=O)c1` [Compound 1085], the Ki is < 5 nM.

Regarding `CON=Cc1ccc(C#C[C@]2(CN3Cc4ccc(OC)cc4C3=O)NC(=O)NC2=O)cc1` [Compound 1086], the Ki is < 5 nM.

Regarding `COc1ccc2c(c1)CCN(CC1(C#Cc3cccnc3)NC(=O)NC1=O)C2=O` (centres unmarked) [Compound 1087], the Ki was < 5 nM. The same measure, in the same setting: the result for `COc1ccc2c(c1)CCN(CC1(C#Cc3ccc(Cl)s3)NC(=O)NC1=O)C2=O` (centres unmarked) [Compound 1088] reads 5 to 25 nM; that for `COc1ccc2c(c1)C(=O)N(C[C@@]1(C#Cc3cccc(C=NO)c3)NC(=O)NC1=O)C2` [Compound 1089], < 5 nM; that for `COc1ccc2c(c1)C(=O)N(C[C@@]1(C#Cc3ccc(C(C)=NO)s3)NC(=O)NC1=O)C2` [Compound 1090], < 5 nM. For the molecule `COc1ccc2c(c1)C(=O)N(C[C@@]1(C#Cc3ccc(C=NO)cc3)NC(=O)NC1=O)C2` [Compound 1091], the Ki was < 5 nM. For the molecule `COc1ccc2c(c1)CCN(C[C@@]1(C#Cc3cccnc3)NC(=O)NC1=O)C2=O` [Compound 1092], the Ki is < 5 nM. Turning to `COc1ccc2c(c1)CCN(C[C@@]1(C#Cc3ccc(Cl)s3)NC(=O)NC1=O)C2=O` [Compound 1093], the Ki is < 5 nM. Consider `COc1ccc2c(c1)C(=O)N(C[C@]1(C#Cc3cnc4[nH]c(C)nc4c3C)NC(=O)NC1=O)C2` [Compound 1094], for which the Ki is > 100 nM.

On to `COc1ccc2c(c1)C(=O)N(C[C@@]1(C#Cc3ccc4c(c3)n(C)c(=O)n4C)NC(=O)NC1=O)C2` [Compound 1095], for which the Ki was < 5 nM.

With `COc1ccc2c(c1)CCN(C[C@]1(C#Cc3cccnc3)NC(=O)NC1=O)C2=O` [Compound 1096], the Ki was > 100 nM.

As for `COc1ccc2c(c1)CCN(C[C@]1(C#Cc3ccc(Cl)s3)NC(=O)NC1=O)C2=O` [Compound 1097], the Ki was > 100 nM. Turning to `COc1ccc2c(c1)C(=O)N(C[C@@]1(C#Cc3cnc4[nH]c(C)nc4c3C)NC(=O)NC1=O)C2` [Compound 1098], the Ki was < 5 nM.

`COc1ccc2c(c1)C(=O)N(C[C@@]1(C#Cc3ccc4[nH]ccc4c3)NC(=O)NC1=O)C2` [Compound 1129]: the Ki is < 5 nM. The same measure, in the same setting: then `COc1ccc2c(c1)C(=O)N(C[C@]1(C#Cc3ccc4[nH]ccc4c3)NC(=O)NC1=O)C2` [Compound 1130], with 5 to 25 nM; and `COc1ccc2c(c1)C(=O)N(C[C@@]1(C#Cc3ccc4cc[nH]c4c3)NC(=O)NC1=O)C2` [Compound 1131], with < 5 nM; and `COc1ccc2c(c1)C(=O)N(C[C@@]1(C#Cc3cccc4[nH]ccc34)NC(=O)NC1=O)C2` [Compound 1132], with < 5 nM.

As to `COc1ccc2c(c1)C(=O)N(C[C@@]1(C#Cc3ccc(C(N)=O)cc3)NC(=O)NC1=O)C2` [Compound 1133], the inhibitory constant (Ki) was < 5 nM. With `COc1ccc2c(c1)C(=O)N(C[C@@]1(C#Cc3cccc(C(N)=O)c3)NC(=O)NC1=O)C2` [Compound 1134], the Ki is < 5 nM.

Turning to `CCOC(=O)c1ccc(C#C[C@]2(CN3Cc4ccc(OC)cc4C3=O)NC(=O)NC2=O)cc1` [Compound 1135], the Ki was < 5 nM. The same measure, in the same setting: then `COc1ccc2c(c1)C(=O)N(C[C@@]1(C#Cc3ccc(-c4ncc[nH]4)cc3)NC(=O)NC1=O)C2` [Compound 1136], with < 5 nM; and `COc1ccc2c(c1)C(=O)N(C[C@@]1(C#Cc3ccccc3C(N)=O)NC(=O)NC1=O)C2` [Compound 1137], with < 5 nM; and `COc1ccc2c(c1)C(=O)N(C[C@@]1(C#Cc3ccc(C(=O)O)cc3)NC(=O)NC1=O)C2` [Compound 1138], with < 5 nM. Take `COc1ccc2c(c1)C(=O)N(C[C@@]1(C#Cc3ccc4c(c3)OCO4)NC(=O)NC1=O)C2` [Compound 1139]: the Ki is < 5 nM. On the same count and under the same terms, the result for `COc1ccc2c(c1)C(=O)N(C[C@@]1(C#Cc3ccc(Cl)c(C(=O)O)c3)NC(=O)NC1=O)C2` [Compound 1140] reads < 5 nM; that for `CNC(=O)c1ccc(C#C[C@]2(CN3Cc4ccc(OC)cc4C3=O)NC(=O)NC2=O)cc1` [Compound 1141], < 5 nM; that for `COc1ccc2c(c1)C(=O)N(C[C@@]1(C#Cc3ccc(C(=O)NCCN(C)C)cc3)NC(=O)NC1=O)C2` [Compound 1142], < 5 nM. Same read-out and setting: the result for `COc1ccc2c(c1)C(=O)N(C[C@@]1(C#Cc3ccc(Cl)c(C(=O)NCCN(C)C)c3)NC(=O)NC1=O)C2` [Compound 1143] reads < 5 nM; that for `CNC(=O)c1cc(C#C[C@]2(CN3Cc4ccc(OC)cc4C3=O)NC(=O)NC2=O)ccc1Cl` [Compound 1144], < 5 nM. Regarding `COc1ccc2c(c1)C(=O)N(C[C@@]1(C#Cc3ccc(C(=O)N4CCOCC4)cc3)NC(=O)NC1=O)C2` [Compound 1145], the Ki is < 5 nM.

Turning to `COc1ccc2c(c1)C(=O)N(C[C@@]1(C#Cc3ccccc3Cl)NC(=O)NC1=O)C2` [Compound 1146], the Ki is < 5 nM. Turning to `COc1cccc(C#C[C@]2(CN3Cc4ccc(OC)cc4C3=O)NC(=O)NC2=O)c1` [Compound 1147], the Ki was < 5 nM. The same measure, in the same setting: the result for `COc1ccc2c(c1)C(=O)N(C[C@@]1(C#Cc3cccc(OC(F)F)c3)NC(=O)NC1=O)C2` [Compound 1148] reads < 5 nM; that for `COc1ccc2c(c1)C(=O)N(C[C@@]1(C#Cc3ccc(F)c(OC)c3)NC(=O)NC1=O)C2` [Compound 1149], < 5 nM.

Regarding `COc1ccc2c(c1)C(=O)N(C[C@@]1(C#Cc3ccc(F)c(O)c3)NC(=O)NC1=O)C2` [Compound 1150], the Ki was < 5 nM. On the same count and under the same terms, then `COc1ccc2c(c1)C(=O)N(C[C@@]1(C#Cc3ccc(F)c(C(N)=O)c3)NC(=O)NC1=O)C2` [Compound 1151], with < 5 nM; and `COc1ccc2c(c1)C(=O)N(C[C@@]1(C#Cc3ccc(N)nc3)NC(=O)NC1=O)C2` [Compound 1152], with < 5 nM; and `COc1ccc2c(c1)C(=O)N(C[C@@]1(C#Cc3ccc(N4CCOCC4)nc3)NC(=O)NC1=O)C2` [Compound 1153], with < 5 nM. For the molecule `COc1ccc2c(c1)C(=O)N(C[C@@]1(C#Cc3ccccc3C#N)NC(=O)NC1=O)C2` [Compound 1154], the Ki is < 5 nM.

For `COc1ccc2c(c1)C(=O)N(C[C@@]1(C#Cc3ccc(C)nc3)NC(=O)NC1=O)C2` [Compound 1155], the Ki was < 5 nM. Same read-out and setting: the result for `COc1ccc2c(c1)C(=O)N(C[C@@]1(C#Cc3ccc(C)cc3)NC(=O)NC1=O)C2` [Compound 1156] reads < 5 nM; that for `COc1ccc2c(c1)C(=O)N(C[C@@]1(C#Cc3ccc(NC(C)=O)nc3)NC(=O)NC1=O)C2` [Compound 1157], < 5 nM; that for `O=C1NC(=O)[C@@](C#Cc2cccnc2)(CN2Cc3ccc(F)cc3C2=O)N1` [Compound 1200], < 5 nM.

Regarding `COc1ccc2c(c1)CN(C[C@@]1(C#Cc3cc(F)cc(F)c3)NC(=O)NC1=O)C2=O` [Compound 1201], the Ki is < 5 nM. Regarding `COc1ccc2c(c1)CN(C[C@@]1(C#Cc3ccc(F)cc3F)NC(=O)NC1=O)C2=O` [Compound 1202], the Ki was < 5 nM.

Staying with this assay, now noted: rhTACEc 70 pM, 30 μM SPDL-3, 90 min pre-incubation at 25° C.; read-out: Ki (nM), TACE inhibitory activity.
Turning to `COc1ccc2c(c1)C(=O)N(C[C@@]1(C#Cc3ccc(C(C)=NO)s3)NC(=O)NC1=O)C2` [Compound 1090], the Ki amounted to 0.3 nM. With `COc1ccc2c(c1)CCN(C[C@@]1(C#Cc3cccnc3)NC(=O)NC1=O)C2=O` [Compound 1092], the Ki stood at 0.37 nM.

As to `COc1ccc2c(c1)C(=O)N(C[C@@]1(C#Cc3cccc4[nH]ccc34)NC(=O)NC1=O)C2` [Compound 1132], the Ki is 1.8 nM. `COc1ccc2c(c1)C(=O)N(C[C@@]1(C#Cc3ccc(N)nc3)NC(=O)NC1=O)C2` [Compound 1152]: the Ki was 0.03 nM. As for `COc1ccc2c(c1)C(=O)N(C[C@@]1(C#Cc3ccc(C)nc3)NC(=O)NC1=O)C2` [Compound 1155], the Ki was 0.41 nM.
